Data: patent US12247063B2, “Cell surface modification by coating with peptide amphiphiles (PAs)” (Northwestern University, priority 2020, dated 2025)
Values belong to the compound of their own block, whether it stands above or below them. Peptide text beside a SMILES is read from it.

Columns and labels:
[1] = Zeta potential measurement of PA nanofibers; format: physicochemical; conditions: 0.1 mM PA in DPBS
Method: The PA solutions were prepared with the final concentration of 0.1 mM in DPBS. Each solution was transferred to folded capillary zeta cells (Malvern). The zeta potential was measured using zetasizer Nano ZSP (Malvern).

[2] = target: T1, Recombinant Human VCAM-1/CD106 Fc chimera protein (Homo sapiens, UniProt P19320); assay: Biolayer interferometry (BLI) binding to VCAM-1 protein; conditions: all concentrations of PA investigated (0.1 mM-100 nM)
T1 construct: Fc (immunoglobulin Fc fusion partner); His tag (inferred from capture on anti-penta-His sensor); purchased R&D Systems
Method: The PA solution of each PA were prepared with the concentration 1 mM after annealing and serial dilutions were made for 100, 10, 1 μM, 100, 10, 1 nM solutions using DPBS. Recombinant Human VCAM-1/CD106 Fc chimera protein (R&D Systems) was purchased and the stock solution of 100 μg/mL was prepared according to the manufacturer's instructions and stored in −80° C. until use. For measurement, the protein solution was diluted to […]. The binding responses were measured and recorded by BLItz Bio-Layer Interferometer in Keck Biophysics Facility, Chicago campus, Northwestern University. The biosensor utilized for this study was Anti-Penta-HIS Biosensors (ForteBio). The measuring protocol is as follows: 30 seconds of initial baseline measurement, 600 seconds of protein (VCAM-1) immobilization, 30 seconds of base line measurement, 300 seconds of association measurement, 300 seconds of dissociation measurement. The dissociation constant was calculated by BLItz Pro Software.

[3] = system: human regulatory T (hTreg) cells; assay: PA nanofiber coating of human regulatory T cells (flow cytometry, confocal); format: cell-based
Method: To isolate the Treg cells, the apheresis product collected from peripheral blood was suspended in a de-clumping buffer (Miltenyi PBS/EDTA Buffer, 25% Human Serum Albumin (HSA), MgCl2, and Pulmozyme). Using CliniMACS Plus and GMP grade reagents, the CD8 and CD19 depletion and CD25+ enrichment was carried out (Miltenyi). The isolated Tregs were stimulated/expanded with Exp-Act® beads at a 4:1 (bead:cell) ratio in a TexMACS medium supplemented with 5% heat-inactivated AB serum, 1,000 IU/ml IL-2, 100 ng/ml Sirolimus (SRL: Rapamycin; Sigma Aldrich) and 1 μg/ml TGF-β (Miltenyi Biotec). The cells were then restimulated with Exp-Act® beads, at a ratio of 1:1 beads on Day 7 and 14. Further, the expanded Tregs were harvested on Day 21 and Exp-Act beads were removed on the CliniMACS Plus instrument for the nanofiber coating experiment and evaluation. Peripheral blood samples were obtained under a protocol following written informed consent approved and supervised by a Northwestern University Institutional Review Board.
(§1) The cells for PA nanofiber coating should be prepared as a dispersion in buffer (DPBS; Invitrogen). The adherent cells such as 3T3 and C2C12 cells were dissociated using Trypsin (0.25%, Invitrogen). The cells were centrifuged down and washed using buffers to be prepared in DPBS (5×10^5 cells/15 μL/tube). Non-adherent cells such as CCRF-CEM cells or human regulatory T cells were simply washed by buffers to remove serum or other proteins which potentially interact with the PA molecules to get concentrated cell dispersion.
(§2) The 15 μL of concentrated cell dispersion in DPBS was mixed with 10 μL of PA solution in 500 μL-tube at RT. Unless otherwise noted, the incubation time for backbone PAs and VCAMb PA is 5 minutes and 1 minute, respectively. After incubation the cell and PA mixture was transferred to a 15 mL-conical tube with 2 mL of DPBS and centrifuged down by 1,000 g for 10 minutes. The supernatant was aspirated leaving 300 μL of buffers with the cell pellet. For backbone PA, the washing step was repeated for 3 times. For further characterizations, the pellets were dissociated in 100 μL DPBS.
(§3) All cells were stained by Calcein AM (Life Technologies) and Hoechst 33342 (Life Technologies) according to manufacturer's instructions for imaging and the flow cytometry analysis. For confocal fluorescence imaging and imaging with z-stacks, Nikon X1 Spinning Disk Confocal microscope in Center for Advanced Microscopy/Nikon Imaging Center (CAM), Northwestern University was utilized. […]
(§4) In order to quantify the coating efficiency, mean fluorescence intensity (MFI) and the viability of the cells, LSR Fortessa and Diva software (BD Biosciences) was utilized. […] The viability was calculated by dividing the number of Calcein-AM+ (living cells) by the total number of cells.

CCRF-CEM cells = assay: PA nanofiber coating of CCRF-CEM model cells (confocal microscopy, flow cytometry); format: cell-based; conditions: annealed nanofibers with 1 mol % TAMRA-PA
Method: as §1
The 15 μL of concentrated cell dispersion in DPBS was mixed with 10 μL of PA solution in 500 μL-tube at RT. […]
as §3, §4

[4] = system: human regulatory T (hTreg) cells; assay: Viability of PA-coated hTreg cells (Calcein AM, flow cytometry); format: cell-based; conditions: 500 μM coating solution
Method: as §2
(§5) All cells were stained by Calcein AM (Life Technologies) and Hoechst 33342 (Life Technologies) according to manufacturer's instructions for imaging and the flow cytometry analysis. For confocal fluorescence imaging and imaging with z-stacks, Nikon X1 Spinning Disk Confocal microscope in Center for Advanced Microscopy/Nikon Imaging Center (CAM), Northwestern University was utilized. For 3D reconstruction of z-stacks of confocal images, IMARIS software (Oxford Instruments) in the same center was utilized.
(§6) In order to quantify the coating efficiency, mean fluorescence intensity (MFI) and the viability of the cells, LSR Fortessa and Diva software (BD Biosciences) was utilized. The coating efficiency was obtained from calculating the number of TAMRA+ cells divided by the total number of cells (Hoechst+ cells). The MFI value was obtained from living cells. The viability was calculated by dividing the number of Calcein-AM+ (living cells) by the total number of cells.

VCAM-1 = target: T2, VCAM-1 (Homo sapiens, UniProt P19320); conditions: free peptide, SPR, measured from another group; cited from earlier work
T2 sequence (P19320 25-739): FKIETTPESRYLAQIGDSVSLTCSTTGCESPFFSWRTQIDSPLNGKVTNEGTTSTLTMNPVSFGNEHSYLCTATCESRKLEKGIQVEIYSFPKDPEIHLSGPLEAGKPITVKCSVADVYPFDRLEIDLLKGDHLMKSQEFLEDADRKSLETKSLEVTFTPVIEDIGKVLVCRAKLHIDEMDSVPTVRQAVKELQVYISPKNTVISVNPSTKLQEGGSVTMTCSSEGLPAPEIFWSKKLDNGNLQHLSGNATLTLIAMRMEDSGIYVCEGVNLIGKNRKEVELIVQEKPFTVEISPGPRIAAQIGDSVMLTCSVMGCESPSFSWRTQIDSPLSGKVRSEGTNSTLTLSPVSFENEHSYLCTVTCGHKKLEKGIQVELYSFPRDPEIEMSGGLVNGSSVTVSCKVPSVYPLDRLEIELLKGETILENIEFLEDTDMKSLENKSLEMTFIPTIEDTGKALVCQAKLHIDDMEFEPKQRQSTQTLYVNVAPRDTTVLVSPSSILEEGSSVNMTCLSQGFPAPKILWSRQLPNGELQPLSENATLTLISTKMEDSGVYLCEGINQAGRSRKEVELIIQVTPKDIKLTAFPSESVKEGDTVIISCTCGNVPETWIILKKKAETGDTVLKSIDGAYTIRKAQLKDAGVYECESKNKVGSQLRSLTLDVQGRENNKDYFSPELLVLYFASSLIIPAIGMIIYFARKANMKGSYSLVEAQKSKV

[5] = system: primary murine splenocytes; assay: Coating of murine primary splenocytes (confocal, flow cytometry); format: cell-based
Source text: (§7) To further investigate the coating efficiency of the targeting PAs, murine primary splenocytes were isolated, coated with TAMRA-labeled ICAM-1 targeting PA, and visualized using confocal microscopy. […] Flow cytometry was subsequently performed to compare coating efficiency of ICAM-1 and VCAM-1 targeting PAs. […] This can be visualized through both light microscopy (top) and processed images highlighting bound cell edges (bottom).

[6] = Viability of PA-coated hTreg cells (Calcein AM, flow cytometry); format: cell-based, human; conditions: human, human regulatory T (hTreg) cells
Method: as §2, §5, §6

ICAM surface = ICAM surface (Homo sapiens, UniProt P05362); assay: Microfluidic flow retention of coated lymphocytes on protein surface; format: cell-based
Source text: as §7

T1 sequence (P19320 with tags, fused parts or gaps limits assumed): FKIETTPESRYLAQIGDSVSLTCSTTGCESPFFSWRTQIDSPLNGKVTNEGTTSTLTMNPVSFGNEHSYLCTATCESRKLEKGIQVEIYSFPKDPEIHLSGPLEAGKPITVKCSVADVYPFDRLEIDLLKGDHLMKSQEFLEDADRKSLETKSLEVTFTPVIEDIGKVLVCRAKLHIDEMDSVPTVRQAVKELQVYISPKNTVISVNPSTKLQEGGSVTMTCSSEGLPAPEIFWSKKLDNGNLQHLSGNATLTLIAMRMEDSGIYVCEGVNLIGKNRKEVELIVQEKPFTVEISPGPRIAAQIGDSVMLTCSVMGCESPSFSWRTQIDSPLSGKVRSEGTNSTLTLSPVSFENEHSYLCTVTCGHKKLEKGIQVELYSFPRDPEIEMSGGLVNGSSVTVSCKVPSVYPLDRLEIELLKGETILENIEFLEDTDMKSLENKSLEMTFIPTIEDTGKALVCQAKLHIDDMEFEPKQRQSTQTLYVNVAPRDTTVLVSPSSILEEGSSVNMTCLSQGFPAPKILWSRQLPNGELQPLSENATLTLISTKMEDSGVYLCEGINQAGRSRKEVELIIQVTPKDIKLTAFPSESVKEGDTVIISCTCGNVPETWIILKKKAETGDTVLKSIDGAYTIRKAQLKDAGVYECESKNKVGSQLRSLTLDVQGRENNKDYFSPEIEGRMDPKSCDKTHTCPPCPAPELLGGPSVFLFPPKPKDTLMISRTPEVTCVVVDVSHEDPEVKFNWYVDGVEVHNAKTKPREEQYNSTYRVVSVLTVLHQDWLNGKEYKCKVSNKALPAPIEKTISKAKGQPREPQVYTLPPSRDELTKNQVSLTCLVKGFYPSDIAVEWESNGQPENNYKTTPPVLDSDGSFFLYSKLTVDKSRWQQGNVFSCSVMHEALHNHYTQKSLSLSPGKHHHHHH
Chain of ICAM surface (P05362 28-532): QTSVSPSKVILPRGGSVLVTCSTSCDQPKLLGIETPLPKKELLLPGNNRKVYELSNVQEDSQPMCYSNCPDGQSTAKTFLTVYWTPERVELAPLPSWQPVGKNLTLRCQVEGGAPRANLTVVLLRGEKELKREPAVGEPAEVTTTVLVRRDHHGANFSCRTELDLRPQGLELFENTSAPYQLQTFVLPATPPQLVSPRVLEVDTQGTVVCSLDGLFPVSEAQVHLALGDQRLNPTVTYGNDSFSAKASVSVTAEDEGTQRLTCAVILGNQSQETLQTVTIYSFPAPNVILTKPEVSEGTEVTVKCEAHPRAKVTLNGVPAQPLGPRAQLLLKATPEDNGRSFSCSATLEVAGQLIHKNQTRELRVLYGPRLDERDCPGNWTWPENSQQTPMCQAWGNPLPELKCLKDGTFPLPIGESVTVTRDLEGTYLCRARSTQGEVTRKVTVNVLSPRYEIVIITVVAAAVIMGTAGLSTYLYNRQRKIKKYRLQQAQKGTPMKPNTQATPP

- association with VCAM-1 protein in BLI [2]: negligible binding
Compound: C16-V3A3E3GSGQHPHVK (SEQ ID NO: 17) (VVVAAAEEEGSGQHPHVK; HELM PEPTIDE1{[CCCCCCCCCCCCCCCC(=O)[*:2]].V.V.V.A.A.A.E.E.E.G.S.G.Q.H.P.H.V.K.[am]}$$$$V2.0; SMILES CCCCCCCCCCCCCCCC(=O)N[C@H](C(=O)N[C@H](C(=O)N[C@H](C(=O)N[C@@H](C)C(=O)N[C@@H](C)C(=O)N[C@@H](C)C(=O)N[C@@H](CCC(=O)O)C(=O)N[C@@H](CCC(=O)O)C(=O)N[C@@H](CCC(=O)O)C(=O)NCC(=O)N[C@@H](CO)C(=O)NCC(=O)N[C@@H](CCC(N)=O)C(=O)N[C@@H](Cc1c[nH]cn1)C(=O)N1CCC[C@H]1C(=O)N[C@@H](Cc1c[nH]cn1)C(=O)N[C@H](C(=O)N[C@@H](CCCCN)C(N)=O)C(C)C)C(C)C)C(C)C)C(C)C) [VCAMb-scr PA]
- zeta potential [1]: 6.313±0.8632 mV
- coating behavior on hTreg cells ([3]; physiological buffer): the majority of the cells were not coated by the fibers

Compound: C16-V4A2E3 (SEQ ID NO: 12) (VVVVAAEEE; HELM PEPTIDE1{[CCCCCCCCCCCCCCCC(=O)[*:2]].V.V.V.V.A.A.E.E.E.[am]}$$$$V2.0; SMILES CCCCCCCCCCCCCCCC(=O)N[C@H](C(=O)N[C@H](C(=O)N[C@H](C(=O)N[C@H](C(=O)N[C@@H](C)C(=O)N[C@@H](C)C(=O)N[C@@H](CCC(=O)O)C(=O)N[C@@H](CCC(=O)O)C(=O)N[C@@H](CCC(=O)O)C(N)=O)C(C)C)C(C)C)C(C)C)C(C)C) [backbone PA candidate with V4A2 β-sheet region]
- coverage of the cell surface by nanofibers (CCRF-CEM cells): only could partially cover the cell surface

Compound: CCCCCCCCCCCCCCCC(=O)N[C@H](C(=O)N[C@H](C(=O)N[C@H](C(=O)N[C@@H](C)C(=O)N[C@@H](C)C(=O)N[C@@H](C)C(=O)N[C@@H](CCC(=O)O)C(=O)N[C@@H](CCC(=O)O)C(=O)N[C@@H](CCC(=O)O)C(N)=O)C(C)C)C(C)C)C(C)C [backbone PA, C16-V3A3E3 (SEQ ID NO: 5)] (HELM PEPTIDE1{[CCCCCCCCCCCCCCCC(=O)[*:2]].V.V.V.A.A.A.E.E.E.[am]}$$$$V2.0)
- viability of coated cells [4]: high viability

Compound: VHPKQHR [VHPKQHR (SEQ ID NO: 11)]
- Kd (VCAM-1): 39.6 ± 1.78 nM

- zeta potential [1]: 21.4±3.703 mV
- association with VCAM-1 protein in BLI [2]: clear association
- non-specific interactions of coated lymphocytes with off-target protein (ICAM surface): minimal
Compound: CCCCCCCCCCCCCCCC(=O)N[C@H](C(=O)N[C@H](C(=O)N[C@H](C(=O)N[C@@H](C)C(=O)N[C@@H](C)C(=O)N[C@@H](C)C(=O)N[C@@H](CCC(=O)O)C(=O)N[C@@H](CCC(=O)O)C(=O)N[C@@H](CCC(=O)O)C(=O)NCC(=O)N[C@@H](CO)C(=O)NCC(=O)N[C@H](C(=O)N[C@@H](Cc1c[nH]cn1)C(=O)N1CCC[C@H]1C(=O)N[C@@H](CCCCN)C(=O)N[C@@H](CCC(N)=O)C(=O)N[C@@H](Cc1c[nH]cn1)C(N)=O)C(C)C)C(C)C)C(C)C)C(C)C [VCAMb PA, C16-V3A3E3GSGVHPKQH (SEQ ID NO: 14)] (HELM PEPTIDE1{[CCCCCCCCCCCCCCCC(=O)[*:2]].V.V.V.A.A.A.E.E.E.G.S.G.V.H.P.K.Q.H.[am]}$$$$V2.0)
- difference in coating efficiency between VCAM-1 and ICAM-1 targeting PA [5]: little difference
- viability at 1 min, 125 µM ([6]; 125 μM PA): 85.2 ± 5.3%
- viability at 1 min, 250 µM ([6]; 250 μM PA): 82.6 ± 7.45%
- viability at 1 min, 500 µM ([6]; 500 μM PA): 82.53 ± 0.61%
- coating efficiency ([3]; PA in the range of 125-500 μM): ≥ 95%
- coating efficiency ([3]; coated within 1 minute at room temperature): ≥ 94.5%
- minimal concentration of stable coating ([3]; from coating efficiency and peak shifting): 125 µM
